Test results published in US20260184708A1, “PYRIDAZINONES AND METHODS OF USE THEREOF” (GFB (ABC), LLC, priority 2017, published 2026).
Where two headings read alike, the source gives them in different places.

Biological target: T1, TRPC4 (Homo sapiens, UniProt Q9UBN4)
T1 construct: expressed in transfected cells; host or cells: HEK-TREx (HekTrex-293), cell line ICLN-1694, tetracycline-induced
T1 sequence (Q9UBN4 1-982 isoform Q9UBN4-5): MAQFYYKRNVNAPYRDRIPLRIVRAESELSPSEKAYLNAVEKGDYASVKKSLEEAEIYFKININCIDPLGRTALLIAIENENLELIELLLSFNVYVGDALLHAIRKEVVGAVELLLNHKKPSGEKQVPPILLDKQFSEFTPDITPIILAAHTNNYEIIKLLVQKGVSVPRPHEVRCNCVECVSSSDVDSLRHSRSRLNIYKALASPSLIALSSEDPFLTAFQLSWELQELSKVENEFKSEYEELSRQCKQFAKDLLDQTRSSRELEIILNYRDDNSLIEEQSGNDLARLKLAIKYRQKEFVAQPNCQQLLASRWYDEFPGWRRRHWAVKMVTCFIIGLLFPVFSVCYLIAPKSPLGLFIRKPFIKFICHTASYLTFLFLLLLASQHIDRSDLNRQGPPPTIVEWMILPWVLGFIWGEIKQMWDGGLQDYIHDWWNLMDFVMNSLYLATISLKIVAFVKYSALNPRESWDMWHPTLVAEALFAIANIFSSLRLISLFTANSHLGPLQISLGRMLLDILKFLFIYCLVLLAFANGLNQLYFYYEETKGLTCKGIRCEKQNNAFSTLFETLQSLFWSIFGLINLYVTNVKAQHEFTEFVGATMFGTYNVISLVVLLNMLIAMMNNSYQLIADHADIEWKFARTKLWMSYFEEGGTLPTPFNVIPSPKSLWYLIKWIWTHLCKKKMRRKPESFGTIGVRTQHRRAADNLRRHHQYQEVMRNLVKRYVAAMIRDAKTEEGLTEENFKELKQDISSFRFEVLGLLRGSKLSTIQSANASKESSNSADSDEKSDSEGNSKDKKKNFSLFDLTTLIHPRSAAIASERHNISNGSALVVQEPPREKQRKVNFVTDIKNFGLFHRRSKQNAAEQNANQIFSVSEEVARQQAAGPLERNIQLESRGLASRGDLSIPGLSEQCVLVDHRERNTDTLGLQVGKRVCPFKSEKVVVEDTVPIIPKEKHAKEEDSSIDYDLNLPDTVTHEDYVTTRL
Assay: TRPC4 FLIPR Assay (HEK-TREx hTRPC4, Englerin A stimulation)
Assay type: cell-based
Conditions: HEK-TREx hTRPC4
Experimental: FLIPR Assay Buffer (Earls Balanced Salt Solution (EBSS)) was prepared as follows:
10-point dose response curves were generated using the Echo-550 acoustic dispenser. Compound source plates were made by serially diluting compound stocks to create 10 mM, 1 mM, and 0.1 mM solutions in DMSO into Echo certified LDV plates. The Echo then serially spotted 100% DMSO stock solutions into source dose response plates to generate a 4-fold dilution scheme. 100% DMSO was added to the spotted dose response plates to bring the final volume to 5 μl. […] of the dose response stock plate was then spotted into pre-incubation and stimulation assay plates. […] of pre-incubation buffer and 100 μl of stimulation buffer was then added to the plates resulting in a final assay test concentration range of 30 μM to 0.0001 μM with a final DMSO concentration of 0.3%.
Experimental Methods: Cells expressing TRPC4 were plated onto 384 well, black pdl-coated microplates and maintained in TRPC4 growth media the day prior to use for experiments. TRPC4 expression was induced by the application of 1 μg/ml tetracycline at the time of plating. […] Cells were incubated at room temperature, protected from light, for 60-90 minutes. After the incubation period, the dye was removed and replaced with 10 μl of EBSS. Cell, pre-incubation and stimulation plates were loaded onto the FLIPR-II and the assay was initiated. The FLIPR measured a 10 second baseline and then added 10 μl of 2× compounds (or controls). Changes in fluorescence were monitored for an additional 5 minutes. After a 5 minute pre-incubation, 20 μl of 2× Englerin A (with 1× compound or controls) was added to the cell plate. The final Engerlin A stimulation concentration in the assay is 100 nM. After the Englerin A addition, changes in fluorescence were monitored for an additional 5 minutes.
Test Agent Effect: Test agent modulation of TRPC4 calcium response was determined as follows. After the Englerin A, fluorescence was monitored for a 5 minute period. The maximum relative fluorescence response (minus the control response of […] of the control inhibitor) was captured and exported from the FLIPR. Test agent effect was calculated as % inhibition using the following formula: % inhibition=((RFU TEST AGENT−Plate Average RFU REF INHIB)/(Plate Average RFU CONTROL−Plate Average RFU REF INHIB))×100

[1] = Table 10, read-out: TRPC4-FLIPR ICSO
[2] = Table 9, read-out: hTRPC4-FLIPR IC50

Compound | IC50 [1] [nM] | IC50 [2] [nM]
[2H]c1nc2c(n1Cc1ccccc1C(F)(F)F)CCN(c1cn[nH]c(=O)c1Cl)C2 | 0.01 to 1000 | –
C[C@H](c1ccc(F)cc1C(F)F)n1nc(C(N)=O)c2c1CCN(c1cn[nH]c(=O)c1Cl)C2 | 0.01 to 1000 | –
C[C@@H](c1ccccc1C(F)(F)F)N1CCN(c2cn[nH]c(=O)c2Cl)CC1=O [drawing 1044] | – | 0.01 to 1000
C[C@H](c1ccc(F)cc1C(F)(F)F)N1C[C@@H](C)N(c2cn[nH]c(=O)c2Cl)CC1=O [drawing 1048] | – | 0.01 to 1000
C[C@@H](c1ccc(F)cc1C(F)(F)F)N1CCN(c2cn[nH]c(=O)c2Cl)CC1=O [drawing 1049] | – | 0.01 to 1000
COCc1ccccc1Cn1cnc2c1CCN(c1cn[nH]c(=O)c1Cl)C2 [drawing 1053] | 0.01 to 1000 | –
COCc1ncccc1Cn1cnc2c1CCN(c1cn[nH]c(=O)c1Cl)C2 [drawing 1065] | 1000 to 5000 | –
C[C@@H]1Cc2c(nnn2[C@@H](C)c2ccccc2C(F)(F)F)CN1c1cn[nH]c(=O)c1Cl [drawing 1071] | 0.01 to 1000 | –
C[C@H](c1ccccc1C(F)(F)F)n1nnc2c1CCN(c1cn[nH]c(=O)c1Cl)[C@H]2C [drawing 1078] | 0.01 to 1000 | –
CCS(=O)(=O)c1nc2c(n1Cc1ccccc1C(F)(F)F)CCN(c1cn[nH]c(=O)c1Cl)C2 [drawing 1079] | 0.01 to 1000 | –
O=c1[nH]ncc(N2CCc3c(c(=O)[nH]n3Cc3ccccc3C(F)(F)F)C2)c1Cl [drawing 1081] | 0.01 to 1000 | –
C[C@@H]1Cc2c(nnn2[C@@H](C)c2ccc(F)cc2C(F)(F)F)CN1c1cn[nH]c(=O)c1Cl [drawing 1085] | 0.01 to 1000 | –
C[C@H](c1ccc(F)cc1C(F)(F)F)n1nnc2c1CCN(c1cn[nH]c(=O)c1Cl)[C@H]2C [drawing 1092] | 0.01 to 1000 | –
C[C@H](c1ccccc1C(F)F)n1nnc2c1CCN(c1cn[nH]c(=O)c1Cl)C2 [drawing 1100] | 0.01 to 1000 | –
C[C@@H](c1ccccc1C(F)F)n1nnc2c1CCN(c1cn[nH]c(=O)c1Cl)C2 [drawing 1106] | 0.01 to 1000 | –
C[C@@H](c1ccc(F)cc1C(F)F)n1nnc2c1CCN(c1cn[nH]c(=O)c1Cl)C2 [drawing 1107] | 0.01 to 1000 | –
CNC(=O)c1nn([C@H](C)c2ccccc2C(F)F)c2c1CN(c1cn[nH]c(=O)c1Cl)CC2 [drawing 1113] | 0.01 to 1000 | –
CC(c1ccc(F)cc1C(F)F)n1nc(C(N)=O)c2c1CCN(c1cn[nH]c(=O)c1Cl)C2 (centres unmarked) [drawing 1114] | 0.01 to 1000 | –
CNC(=O)c1nn(Cc2ccc(F)cc2C(F)F)c2c1CN(c1cn[nH]c(=O)c1Cl)CC2 [drawing 1117] | 0.01 to 1000 | –

The remaining lines, values ahead:

IC50 [1] [nM] | IC50 [2] [nM] | Compound
0.01 to 1000 | – | C[C@@H]1Cc2c(c(C(N)=O)nn2Cc2ccccc2C(F)(F)F)CN1c1cn[nH]c(=O)c1Cl [drawing 1118]
0.01 to 1000 | – | COC[C@H](c1ccccc1C(F)(F)F)n1cnc2c1CCN(c1cn[nH]c(=O)c1Cl)C2 [drawing 1120]
0.01 to 1000 | – | C[C@H](c1ccccc1C(F)(F)F)n1nc(C(N)=O)c2c1CCN(c1cn[nH]c(=O)c1Cl)C2 [drawing 1123]
0.01 to 1000 | – | C[C@@H](c1cccnc1CC(F)F)n1nnc2c1CCN(c1cn[nH]c(=O)c1Cl)C2 [drawing 1125]
0.01 to 1000 | – | O=c1[nH]ncc(N2CCc3c(nnn3Cc3ccc(F)cc3CC(F)(F)F)C2)c1Cl [drawing 1131]
0.01 to 1000 | – | C[C@H](c1ccccc1Cl)n1nnc2c1CCN(c1cn[nH]c(=O)c1Cl)C2 [drawing 1133]
0.01 to 1000 | – | CNC(=O)c1nc2c(n1Cc1ccccc1C(F)(F)F)CCN(c1cn[nH]c(=O)c1Cl)C2 [drawing 1134]
0.01 to 1000 | – | NC(=O)c1nc2c(n1Cc1ccccc1C(F)(F)F)CCN(c1cn[nH]c(=O)c1Cl)C2 [drawing 1135]
0.01 to 1000 | – | O=c1[nH]ncc(N2CCc3c(ncn3Cc3ccc(F)cc3Cl)C2)c1Cl [drawing 1136]
0.01 to 1000 | – | O=c1[nH]ncc(N2CCc3c(ncn3Cc3ccccc3Cl)C2)c1Cl [drawing 1139]
0.01 to 1000 | – | C[C@@H](c1ccccc1Cl)n1nnc2c1CCN(c1cn[nH]c(=O)c1Cl)C2 [drawing 1140]
0.01 to 1000 | – | CS(=O)(=O)c1nc2c(n1Cc1ccccc1C(F)(F)F)CCN(c1cn[nH]c(=O)c1Cl)C2 [drawing 1142]
0.01 to 1000 | – | CN(c1ncc2c(n1)CN(c1cn[nH]c(=O)c1Cl)C2)c1ccc(F)cc1Cl [drawing 1144]
0.01 to 1000 | – | CCN(c1ncc2c(n1)CN(c1cn[nH]c(=O)c1Cl)C2)c1ccccc1Cl [drawing 1148]
0.01 to 1000 | – | O=c1[nH]ncc(N2CCc3c(Cc4ccc(F)cc4C(F)(F)F)n[nH]c3C2)c1Cl [drawing 1153]
0.01 to 1000 | – | CCc1ncccc1N(C)c1ncc2c(n1)CN(c1cn[nH]c(=O)c1Cl)C2 [drawing 1154]
